This is an account of results in patent US4935579A, “Separation of m-diisopropylbenzene from p-diisopropylbenzene by azeotropic distillation with alcohols” (priority 1988, dated 1990).

A short description of data set [1]: Vapor-liquid equilibrium still: relative volatility of m-DIPB to p-DIPB with alcohol agent and azeotrope boiling point. It counts as physicochemical. Conditions: for Relative Volatility (m-DIPB to p-DIPB): vapor-liquid equilibrium still; for Relative Volatility (m-DIPB to p-DIPB) / Azeotrope B.P.: starting mixture 50 % alcohol, 25 % m-DIPB, 25 % p-DIPB; for Azeotrope B.P.: 640 mm. Hg; for vapor composition, m-DIPB / vapor composition, p-DIPB: gas chromatography; for relative volatility of m-DIPB to p-DIPB: Examples 1 and 2, reflux thirteen or eleven hours. From the text:
The data in Tables 2 and 3 were obtained in a vapor-liquid equilibrium still. In each case, the starting material was a mixture containing 50 % alcohol, 25 % m-DIPB and 25 % p-DIPB. The boiling points of the azeotropes at 640 mm. Hg are shown. The relative volatilities are listed for each of the alcohols investigated.
Forty grams of m-DIPB - p-DIPB mixture and 40 grams of diethylene glycol butyl ether were charged to an Othmer type vapor-liquid equilibrium still and refluxed for thirteen hours. Analysis by gas chromatography gave a vapor composition of 68.9% m-DIPB, 31.1% p-DIPB; a liquid decomposition of […], 36.8% p-DIPB. This indicates a relative volatility of m-DIPB to p-DIPB of 1.29.
Forty grams of m-DIPB - p-DIPB mixture and 40 grams of diethylene gylcol methyl ether were charged to the vapor-liquid equilibrium still and refluxed for eleven hours. Analysis indicated a vapor composition of 66.7% m-DIPB, 33.3% p-DIPB; a liquid composition of […] which is a relative volatility of 1.28.

The conditions of data set [2]: no agent; prior art description; cited from earlier work.
Data set [3] is described as follows: Packed rectification column (Berl saddles, 2.3 theoretical plates), Fenske equation. Conditions: 80 g m-DIPB, 20 g p-DIPB, 40 g agent, two hours total reflux. It counts as physicochemical. From the text:
A solution comprising 80 grams of m-DIPB, 20 grams of p-DIPB and 40 grams of o-isopropyl phenol was placed in the stillpot and heated. After two hours of refluxing a total reflux, analysis was made by gas chromatography. The overhead composition was 78% m-DIPB, 22% p-DIPB and the stillpot analysis was 62.7% m-DIPB, 37.3% p-DIPB. Using these compositions in the Fenske equation with the number of theoretical plates in the column being 2.3 gave an average relative volatility of 1.34 for each theoretical plate.

The conditions of data set [4]: m-DIPB and p-DIPB, no agent; cited from earlier work.
The nature of data set [5]: Boiling point and rectification of the isomers without agent. It counts as physicochemical. Conditions: 99% purity, 75% efficiency, no agent. The protocol:
In the manufacture of cumene, also called isopropylbenzene, by the alkylation of benzene with propylene, the most prevalent by-products are the diisopropylbenzenes with the meta and para isomers comprising most of the by-product. m-Diisopropylbenzene (m-DIPB) boils at 203.2° C. […] boils at 210.3° C. and these two have a relative volatility of 1.14. The difficulty of separating these two by rectification can be shown by the data in Table 1.
that rectification of m-DIPB from p-DIPB in 99% purity requires 95 actual plates. Using azeotropic distillation with an agent yielding a relative volatility of 1.29 would require only 48 actual plates.

Where [6] appears, read: 40 g m-DIPB - p-DIPB mixture and 40 g agent.

As to `CCCCCCCCO` [1-Octanol], the “Relative Volatility (m-DIPB to p-DIPB)” value in data set [1] is on record as 1.14.
Still for that read-out and setting: in the case of `CCCCCCO` [n-Hexanol] it was 1.10.
As for `CC(C)c1ccc(C(C)C)cc1` [p-DIPB, p-diisopropylbenzene], the boiling point in data set [2] is 210.3 °C.
For the compound `CC(C)(C)c1ccccc1O` [o-tert. Butyl phenol], in data set [1], the “Azeotrope B.P.” value turned out to be 205 °C and the “Relative Volatility (m-DIPB to p-DIPB)” value was determined as 1.20.
The corresponding values for `Cc1cccc(O)c1` [m-Cresol] are 189 °C and 1.17.
As to `CC(C)c1ccccc1O` [o-Isopropyl phenol], in data set [1], the “Azeotrope B.P.” value was 200 °C and the “Relative Volatility (m-DIPB to p-DIPB)” value is reported as 1.34. In data set [3], the “overhead composition, m-DIPB” value is 78%; the “overhead composition, p-DIPB” value is listed as 22%; the “stillpot composition, m-DIPB” value came to 62.7%; the “stillpot composition, p-DIPB” value turned out to be 37.3%. The “average relative volatility for each theoretical plate” value in data set [3] (Fenske equation, 2.3 plates) is 1.34.
As for `CCCCCCOCCO` [Ethylene glycol hexyl ether], in data set [1], the “Azeotrope B.P.” value amounted to 195 °C and the “Relative Volatility (m-DIPB to p-DIPB)” value is reported as 1.26.
On to `CC(C)CCCCCCO` [Isononyl alcohol], for which, in data set [1], the “Azeotrope B.P.” value was 194 °C and the “Relative Volatility (m-DIPB to p-DIPB)” value was found to be 1.22.
Taken in the same sequence, the figures for `CCCCCCCCCO` [n-Nonyl alcohol] were 196 °C and 1.23.
The corresponding values for `CC(O)CO` (stereo not drawn) [Propylene glycol] are 168 °C and 1.28.
As to `OCCOc1ccccc1` [Ethylene glycol phenyl ether], the “Relative Volatility (m-DIPB to p-DIPB)” value in data set [1] was determined as 1.14.
For the compound `Oc1ccccc1` [Phenol], in data set [1], the “Azeotrope B.P.” value came out at 174 °C and the “Relative Volatility (m-DIPB to p-DIPB)” value is given as 1.24.
Taken in the same sequence, the figures for `CC(C)CC(O)CC(C)C` [Diisobutyl carbinol] were 180 °C and 1.20.
Take `Cc1ccc(O)cc1` [p-Cresol]: in data set [1], the “Azeotrope B.P.” value amounted to 188 °C and the “Relative Volatility (m-DIPB to p-DIPB)” value is 1.25.
As to `COCCOCCO` [Diethylene glycol methyl ether], in data set [1] (setting [6]), the “liquid composition, m-DIPB” value was 60.9%; the “vapor composition, m-DIPB” value was 66.7%; the “vapor composition, p-DIPB” value is on record as 33.3%; the “relative volatility of m-DIPB to p-DIPB” value is reported as 1.28. In addition, in data set [1], the “Azeotrope B.P.” value was 182 °C and the “Relative Volatility (m-DIPB to p-DIPB)” value was found to be 1.28.
Consider `OCCc1ccccc1` [Phenethyl alcohol], for which, in data set [1], the “Relative Volatility (m-DIPB to p-DIPB)” value is 1.06.
`CC(C)c1cccc(C(C)C)c1` [m-DIPB, m-Diisopropylbenzene]: the “relative volatility used in column calibration” value in data set [4] is reported as 1.14. Further, the “actual plates required for rectification of m-DIPB from p-DIPB” value in data set [5] was found to be 95 actual plates. In data set [2], the boiling point was 203.2 °C; the “relative volatility of m-DIPB and p-DIPB without agent” value is 1.14.
Turning to `CCCCOCCOCC(C)O` (stereo not drawn) [Butoxyethoxypropanol], in data set [1], the “Azeotrope B.P.” value worked out at 199 °C and the “Relative Volatility (m-DIPB to p-DIPB)” value was 1.17.
Taken in the same sequence, the figures for `CCOCCOCCO` [Diethylene glycol ethyl ether] were 185 °C and 1.25.
`CCCCOCCO` [Ethylene glycol butyl ether]: in data set [1], the “Relative Volatility (m-DIPB to p-DIPB)” value stood at 0.6.
For the compound `CCCCOCCOCCO` [Diethylene glycol butyl ether], in data set [1] (setting [6]), the “liquid composition, m-DIPB” value came to 63.2%; the “liquid composition, p-DIPB (second figure)” value came to 36.8%; the “vapor composition, m-DIPB” value was 68.9%; the “vapor composition, p-DIPB” value is listed as 31.1%. Further, in data set [1] (setting [6]), the “relative volatility of m-DIPB to p-DIPB” value was 1.29. Also, in data set [1], the “Azeotrope B.P.” value is 200 °C and the “Relative Volatility (m-DIPB to p-DIPB)” value worked out at 1.29.
Turning to `CCCCC(CC)CO` (stereo not drawn) [2-Ethyl hexanol], in data set [1], the “Azeotrope B.P.” value worked out at 183 °C and the “Relative Volatility (m-DIPB to p-DIPB)” value came out at 1.27. In addition, the “Relative Volatility of alcohol:DIPB mixture” value in data set [1] (one part agent with one part m-DIPB - p-DIPB mixture) was determined as 1.27.
As to Dipropylene glycol methyl ether, in data set [1], the “Azeotrope B.P.” value is 186 °C.
For the compound `CC(C)CCCCCO` [Isooctanol], in data set [1], the “Relative Volatility (m-DIPB to p-DIPB)” value came out at 1.15.
`OCC1CCCO1` (stereo not drawn) [Tetrahydrofurfuryl alcohol]: in data set [1], the “Azeotrope B.P.” value was 171 °C and the “Relative Volatility (m-DIPB to p-DIPB)” value stood at 1.21.
Taken in the same sequence, the figures for `CCC(C)c1ccccc1O` (stereo not drawn) [o-sec. Butyl phenol] were 205 °C and 1.23.
Take `CC(=O)CC(C)(C)O` [Diacetone alcohol]: in data set [1], the “Relative Volatility (m-DIPB to p-DIPB)” value turned out to be 1.13.
Still for that read-out and setting: in the case of `CCCCCCC(C)O` (stereo not drawn) [2-Octanol] it was 1.10.
Still for that read-out and setting: in the case of `OCc1ccccc1` [Benzyl alcohol] it was 1.11.
With `Cc1ccccc1O` [o-Cresol], in data set [1], the “Azeotrope B.P.” value was 184 °C and the “Relative Volatility (m-DIPB to p-DIPB)” value worked out at 1.26.
